The values below come from US10265327B2, “V1A antagonists to treat phase shift sleep disorders” (Hoffmann-La Roche Inc., priority 2013, dated 2019).

For test [1], the target named is T1, mouse V1a receptor (mV1a) (Mus musculus, UniProt Q62463).
T1 construct: expressed in transfected cells; host or cells: HEK cells, transient transfection; membrane preparation
Kind of test: Radioligand binding assay (3H-AVP, filtration), mouse V1a. Conditions: Ki ± SEM (n); 1 nM 3H-AVP. Here is the method: (§1) The test compound was initially dissolved in DMSO at a concentration of 10 mM. Subsequent dilutions were made in assay buffer with a maximum final concentration of 0.2% DMSO.
(§2) Recombinant vasopressin V1a (human: hV1a; mouse: mV1a), V1b (human: hV1b) were independently expressed in human embryonic kidney (HEK) cells using transient transfection. The cell membranes expressing the various receptors were prepared by homogenizing (using Polytron homogenizer) the cell culture pellet in lysis buffer (50 mM HEPES, 1 mM EDTA, 10 mM MgCl2, pH 7.4 with protease inhibitors), then centrifuging the resulting suspension at 500 g for 20 min at 4° C. The supernatant was subsequently re-centrifuged at 43,000 g for 1 hour at 4° C. […] The concentration of protein was determined, and the membranes were aliquoted and stored at −80° C. until further use.
(§3) All radioligand binding assays were carried out in 96-well plates in the presence of 1 nM ^3H-AVP (vasopressin) radioligand, and 10 concentrations of test compound (ranging from 27 μM-1 nM or 2.7 μM-0.1 nM for hV1a binding). […] Filtration assays were terminated by rapid filtration under vacuum through GF/C filters, presoaked for 5 min with buffer B containing Tris 50 mM, MgCl2 5 mM, 0.1% BSA (pH 7.4), followed by 5×0.4 ml washes of ice-cold buffer B. For both SPA and filtration plates, bound ligand was determined using a Packard Topcount scintillation counter. […]

Test [2] concerns the target T2, human V1b receptor (hV1b) (Homo sapiens, UniProt P47901).
T2 construct: expressed in transfected cells; host or cells: HEK cells, transient transfection; membrane preparation
T2 sequence (P47901 1-424): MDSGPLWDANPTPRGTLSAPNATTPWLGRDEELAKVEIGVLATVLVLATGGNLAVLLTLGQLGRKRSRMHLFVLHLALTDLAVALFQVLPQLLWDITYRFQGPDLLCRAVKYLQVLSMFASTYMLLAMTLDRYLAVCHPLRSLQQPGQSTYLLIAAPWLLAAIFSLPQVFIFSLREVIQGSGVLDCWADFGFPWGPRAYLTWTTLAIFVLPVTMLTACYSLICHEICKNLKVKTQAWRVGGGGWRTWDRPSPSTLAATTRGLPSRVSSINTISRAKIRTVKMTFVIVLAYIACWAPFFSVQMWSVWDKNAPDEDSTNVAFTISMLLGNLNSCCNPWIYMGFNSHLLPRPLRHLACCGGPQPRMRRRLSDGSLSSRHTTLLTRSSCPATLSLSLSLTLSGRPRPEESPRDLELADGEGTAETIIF
In words: Radioligand binding assay (3H-AVP, SPA), human V1b. Conditions: (n); 1 nM 3H-AVP; read-out: pKi V1b Human (converted). On the procedure:
as §1, §2, §3

Each structure is given as a SMILES string.

T1 sequence (Q62463 whole entry): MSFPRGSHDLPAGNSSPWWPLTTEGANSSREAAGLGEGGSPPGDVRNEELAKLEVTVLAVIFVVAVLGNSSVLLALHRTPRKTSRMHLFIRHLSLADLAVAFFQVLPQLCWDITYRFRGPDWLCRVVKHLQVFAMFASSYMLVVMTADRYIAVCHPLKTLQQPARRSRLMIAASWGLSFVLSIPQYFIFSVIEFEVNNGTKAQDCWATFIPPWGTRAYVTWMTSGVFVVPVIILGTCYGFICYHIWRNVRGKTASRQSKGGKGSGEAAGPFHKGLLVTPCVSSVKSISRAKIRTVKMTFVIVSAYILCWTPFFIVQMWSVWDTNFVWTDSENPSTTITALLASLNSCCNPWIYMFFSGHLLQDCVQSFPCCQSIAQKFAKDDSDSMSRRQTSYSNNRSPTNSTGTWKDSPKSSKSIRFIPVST

For the molecule `CN1Cc2cc(Cl)ccc2-n2c(nnc2[C@H]2CC[C@H](Oc3ccccn3)CC2)C1` [Example 1, trans-8-chloro-5-methyl-1-(4-pyridin-2-yloxycyclohexyl)-4,6-dihydro-[1,2,4]triazolo[4,3-a][1,4]benzodiazepine], the results for the Ki in test [1] and in test [2] were 77 ± 2 nM and greater than 31600 nM, respectively.
